# Data published in US20240287054A1, “COMPOUNDS THAT BIND NON-CANONICAL G-QUADRUPLEX STRUCTURES AND METHODS OF MAKING AND USING THE SAME” (The U.S.A., as Represented by the Secretary, Department of …, priority 2021, published 2024).
# Columns and labels:
# [1] = biological target: MYCN hairpin-G4 DNA; test: FIA using compound fluorescence (Ex 340/Em 500 nm), titration with unlabeled MYCN G4 DNA; type: binding, human; conditions: 100 nM compound titrated with folded unlabeled MYCN G4
# Experimental: In this study, FIA was used for validating the bindings between certain bivalent and MYCN G4 oligos. To measure the binding affinity, a solution of each compound was prepared in triplicate in a 96 well-plate (Costar, black side clear bottom), resulting in a final concentration of 100 nM (5% final DMSO in the working solution). Unlabeled MYCN G4 DNA was folded based on the above-mentioned annealing method, then added into the well plate resulting in different concentrations by a seral dilution. The plate was incubated at room temperature for 30 min, followed by centrifuging at 500 rpm for 2 minutes. The fluorescence intensity was then quantitatively recorded by a Synergy Mx microplate reader (BioTek) at Ex 340 nm/Em 500 nm. The fluorescence intensities were then normalized, and the binding affinity was calculated by fitting the curve using one-site total model in GraphPad Prism 8.3.1 software.
# [2] = system: dsDNA; test: SPR binding to dsDNA; conditions: up to 5 μM compound injection
# [3] = system: MYCN G4 DNA; test: Surface plasmon resonance (SPR) with immobilized biotinylated MYCN G4 DNA; type: binding, human
# Experimental: Surface plasmon resonance (SPR) analysis. The SPR binding assays were performed with a BIAcore 3000 (GE Healthcare) instrument. A CM5 SPR biochip was loaded into the system and primed with running buffer (10 mM Tris, pH7.0, 100 mM KCl, 0.005% Tween 20, 5% DMSO) with a flow rate of 5 μL/min. Then both Flow Cell (Fc) 1 and 2 were activated by EDC/NHS (0.4 M/0.1 M) aqueous solution for 15 min, followed with an injection of streptavidin (SA) solution (0.2 mg/mL in 10 mM sodium acetate buffer, pH4.5) for 30 minutes. After the immobilization amount of SA reached 8,000-10,000 RU, the surface was deactivated by flowing 1 M Ethanolamine aqueous solution (pH 8.5) for 10 min and regenerated with 10 mM NaOH for 2 min to remove the unbound SA. In the meantime, biotinylated MYCN G4 DNA was prepared at 5 μM in the annealing buffer and heated up to 95° C. for 5 min and slowly cooled down. After annealing, a total of 150 μL solution was injected in the Fc 2 of SPR system for 30 min to immobilize DNA onto the chip surface. The small molecule solutions were tested once the baseline was stable.
# To detect the binding signal as well as the binding affinity, a higher flowing rate (25 μL/min) was used in both Fc 1 (reference) and Fc 2 (DNA). Each of the compound solution was prepared at 20× designed the concentrations in DMSO, and then diluted into non-DMSO running buffer, resulting in a final concentration of 5% DMSO. Then, a total of 50 μL compound solution was injected in Fc 1-2 flow path for 120 s for association, followed with 200 s running of buffer for dissociation. An injection of 50 μL regeneration buffer (1 M KCl) could be performed between two samples if necessary. The final binding curve was obtained by reference subtraction. To determine the binding affinity (KD), a series of diluted compound solutions were injected and KD was calculated by BIAevaluation 4.0 software (GE Healthcare) using Langmuir 1:1 binding model.
# In this example, SPR binding assays were performed to analyze binding activity of representative bivalent compounds of the present disclosure. The compounds of this example included a non-canonical binder component and a G4 stacker component. A BIAcore 3000 (GE Healthcare) instrument was used. A CM5 SPR biochip was used and primed with running buffer (10 mM Tris, pH7.0, 100 mM KCl, 0.005% Tween 20, 5% DMSO). To immobilize the compounds onto the chip surface, the flow rate was set as 5 μL/min. Then the carboxylated dextran on the chip surface was activated by EDC/NHS (0.4 M/0.1 M) aqueous solution for 15 min, followed with an injection of streptavidin (SA) solution (0.2 mg/mL in 10 mM sodium acetate buffer, pH 4.5) for 30 minutes. After the immobilization amount of SA, the surface was quenched by injecting 1 M ethanolamine (EA) aqueous solution (pH 8.5) for 10 min and regenerated with 10 mM NaOH for 2 min to remove the physical adsorption. Furthermore, biotinylated MYCN G4 DNA was prepared at 5 μM in the annealing buffer and heated up to 95° C. for 5 min followed with slowly cooling down to room temperature within 1 h. After annealing, a total of 150 μL solution was injected in the Fc 2 of SPR system for 30 min to immobilize DNA onto the chip surface. The compound solutions were then tested once the baseline was stable.
# To detect the binding signal as well as the binding affinity, a higher flowing rate (25 μL/min) was used in both Fc 1 (blank) and Fc 2 (target). Each of the compound solutions was prepared at 20× designed the concentrations in DMSO, and then diluted into non-DMSO running buffer, resulting in a final concentration of 5% DMSO. Then, a total of 50 μL compound solution was injected in Fc 1-2 flow path for 120 s for association, followed with 200 s running of buffer for dissociation. An injection of 50 μL regeneration buffer (1 M KCl) could be performed between two samples if necessary. The final binding curve was obtained by referencing the blank channel (Fc 1). […]
# [4] = system: MYCN G4 DNA; test: Circular dichroism (CD) thermal melting assay of MYCN G4; type: binding, human; conditions: 10 mM sodium phosphate pH 7.0, 5 mM KCl, 5 μM DNA
# Experimental: For thermal melt assay, MYCN oligonucleotides were prepared in a low KCl buffer (10 mM Tris, pH7.0, 5 mM KCl) at 5 μM concentration. To test the stabilization effect, G4 samples were incubated with and without 20 μM compound (final solution containing 5% DMSO). Then a total of 300 μL solution was added in a cuvette and heated from 20° C. to 95° C. in a CD spectrometer with an interval of 1° C. To calculate the melting temperature (Tm), the peak of CD spectrum at 263 nm was tracked, and […] vs temperature was plotted and fitted using a nonlinear sigmoidal dose-response model with a variable slope in GraphPad Prism 8 software. The shifting of melting temperature (ΔTm) was calculated using Tm (compound)−Tm (DMSO).
# For CD melting assay, MYCN oligonucleotides were prepared in KCl buffer (10 mM sodium phosphate, pH7.0, 5 mM KCl) at 5 μM concentration. To test the stabilization effect of the compounds, MYCN G4 DNA samples were mixed with/without the compound (final solution containing 5% DMSO) at designed concentration. Then a total of 300 μL solution was added in a cuvette and heated from 20 to 80° C. in a CD spectrometer with an interval of 1° C. To calculate the melting temperature (Tm), the peak of CD spectrum at 263 nm was tracked, and […] vs temperature was plotted and fitted using a nonlinear sigmoidal dose-response model with a variable slope in GraphPad Prism 8 software.
structure (smiles),measurement,setting,value
"COc1ccc2nc3cc(Cl)ccc3c(NCCCNCCCl)c2c1 [Acridine ICR 191, reference compound]",Kd,[1],1040 ± 150 nM
same,binding to dsDNA on SPR,[2],dose-dependent binding signals
same,SPR binding kinetics,[3]; MYCN G4 binding curves,fast-on/off
same,Kd,"[3]; MYCN hairpin G4, SPR titration, read-out: KD by SPR",821 ± 184 nM
same,ΔTm of MYCN G4,[4],4.6 °C
